Experimental data as given in patent US20230175066A1, “ANALYSIS/DIAGNOSIS METHOD UTILIZING RNA MODIFICATION” (OSAKA UNIVERSITY, priority 2018, published 2023).

Legend:
[1] = tested on: DLD-1 cell strain, 5-FU resistant strain, FTD resistant strain; set-up: methylation on microRNA, FTD resistant strain / miRNA methylation, FTD resistant strain: unit not given here; conditions: for Rate of change, FTD resistance (fold) / Rate of change, FTD (fold): FTD resistant versus parental strain; for methylation on microRNA, FTD parental strain / methylation on microRNA, FTD resistant strain: RIP sequencing; for methylation on microRNA, FTD parental strain: DLD-1, FTD parental strain; for methylation on microRNA, FTD resistant strain: DLD-1 FTD resistant strain; for miRNA methylation, FTD parental strain / miRNA methylation, FTD resistant strain: miRNAs that decrease post-surgery
Experimental: For an original DLD-1 cell strain and each resistant strain (5-FU resistant strain and FTD resistant strain), RNA methylation analysis in accordance with the protocol for RIP sequencing described above and microarray or mRNA expression analysis similar to the qRT-PCR of Example 2-2 was performed. RIP sequencing and RNA expression information based primary component analysis (two dimensional projection using a component resulting in maximum dispersion) was performed. The results are represented as mean ± standard deviation (SD) based on three independent experiments. The statistical significance of the results was evaluated by pairwise T-TEST using R version 3.4.3 (2017-11-30) on Microsoft Excel® software (Microsoft Campus, Redmond, WA, USA). P value < 0.05 was considered statistically significant. As a result, wild-type strain and each resistant strain was clearly distinguished. […] Total RNA was purified in accordance with the protocol for Trizol (Invitrogen) from the original DLD-1 cell strain and each resistant strain (5-FU resistant strain and FTD resistant strain), and then RNA methylation analysis was performed according to the protocol for RIP sequencing described above. Ribo-Zero rRNA Removal Kit (Illumina) was used for the removal of rNRAs.

[2] = tested on: trifluridine resistant strain of cancer cell strain DLD-1; experiment: IC50 for trifluridine in the trifluridine resistant strain prepared from DLD-1; assay type: cell-based; conditions: Homo sapiens; DLD-1 after maintenance culture for 6 months or more in the presence of trifluridine (about 10 mg/mL)
Experimental: The cancer cell strain DLD-1 obtained from a cell bank such as ATCC or RIKEN was subjected to maintenance culture for 6 months or more in the presence of trifluridine (FTD) (Aldrich-Sigma) (about 10 mg/mL). The maintenance culture was subcultured about twice a week to maintain 60 to 80% confluence at 37° C. in a serum 10% added DMEM medium on a plastic dish.

## miR-378e (ACUGGACUUGGAGUCAGGA; chemistry not fully specified; listed as Homo sapiens)
[1]
  Rate of change, 5-FU resistance (fold): 1.64 fold
  methylation on microRNA, 5-FU parental strain: 11
  methylation on microRNA, 5-FU resistant strain: 2
  Rate of change, FTD resistance (fold): 0.86 fold
  methylation on microRNA, FTD parental strain: 3
  methylation on microRNA, FTD resistant strain: 6

## miR-4467 (UGGCGGCGGUAGUUAUGGGCUU; chemistry not fully specified; listed as Homo sapiens)
[1]
  Rate of change 5-FU (fold): (1.00) fold
  miRNA methylation, 5-FU parental strain: 6
  miRNA methylation, 5-FU resistant strain: 6
  miRNA methylation, FTD parental strain: 1
  miRNA methylation, FTD resistant strain: 12
  Rate of change, FTD (fold): 8.00 fold

## miR-3690 (ACCUGGACCCAGCGUAGACAAAG; chemistry not fully specified; listed as Homo sapiens)
[1]
  methylation on microRNA, 5-FU parental strain: 0
  methylation on microRNA, 5-FU resistant strain: 0
  Rate of change, FTD resistance (fold): 0.00 fold
  methylation on microRNA, FTD parental strain: 1
  methylation on microRNA, FTD resistant strain: 0

## miR-492 (AGGACCUGCGGGACAAGAUUCUU; chemistry not fully specified; listed as Homo sapiens)
[1]
  methylation on microRNA, 5-FU parental strain: 0
  methylation on microRNA, 5-FU resistant strain: 0
  methylation on microRNA, FTD parental strain: 0
  methylation on microRNA, FTD resistant strain: 0

## miR-378d (ACUGGACUUGGAGUCAGAAA; chemistry not fully specified; listed as Homo sapiens)
[1]
  Rate of change, 5-FU resistance (fold): 1.54 fold
  methylation on microRNA, 5-FU parental strain: 144
  methylation on microRNA, 5-FU resistant strain: 30
  Rate of change, FTD resistance (fold): 0.36 fold
  methylation on microRNA, FTD parental strain: 80
  methylation on microRNA, FTD resistant strain: 63

## O=c1[nH]c(=O)n([C@H]2C[C@H](O)[C@@H](CO)O2)cc1C(F)(F)F [trifluridine]
[2]
  IC50: 300 µM

## miR-378h (ACUGGACUUGGUGUCAGAUGG; chemistry not fully specified; listed as Homo sapiens)
[1]
  Rate of change, 5-FU resistance (fold): 0.00 fold
  methylation on microRNA, 5-FU parental strain: 1
  methylation on microRNA, 5-FU resistant strain: 0
  methylation on microRNA, FTD parental strain: 0
  methylation on microRNA, FTD resistant strain: 0

## miR-3122 (GUUGGGACAAGAGGACGGUCUU; chemistry not fully specified; listed as Homo sapiens)
[1]
  methylation on microRNA, 5-FU parental strain: 0
  methylation on microRNA, 5-FU resistant strain: 2
  methylation on microRNA, FTD parental strain: 0
  methylation on microRNA, FTD resistant strain: 0

## miR-4435 (AUGGCCAGAGCUCACACAGAGG; chemistry not fully specified; listed as Homo sapiens)
[1]
  Rate of change 5-FU (fold): 2.38 fold
  miRNA methylation, 5-FU parental strain: 28
  miRNA methylation, 5-FU resistant strain: 14
  miRNA methylation, FTD parental strain: 46
  miRNA methylation, FTD resistant strain: 100
  Rate of change, FTD (fold): 1.41 fold

## miR-378f (ACUGGACUUGGAGCCAGAAG; chemistry not fully specified; listed as Homo sapiens)
[1]
  Rate of change, 5-FU resistance (fold): 0.67 fold
  methylation on microRNA, 5-FU parental strain: 3
  methylation on microRNA, 5-FU resistant strain: 1
  Rate of change, FTD resistance (fold): (0.50) fold
  methylation on microRNA, FTD parental strain: 2
  methylation on microRNA, FTD resistant strain: 1

## miR-378i (ACUGGACUAGGAGUCAGAAGG; chemistry not fully specified; listed as Homo sapiens)
[1]
  Rate of change, 5-FU resistance (fold): 0.50 fold
  methylation on microRNA, 5-FU parental strain: 18
  methylation on microRNA, 5-FU resistant strain: 1
  Rate of change, FTD resistance (fold): 0.33 fold
  methylation on microRNA, FTD parental strain: 6
  methylation on microRNA, FTD resistant strain: 3

## miR-4754 (AUGCGGACCUGGGUUAGCGGAGU; chemistry not fully specified; listed as Homo sapiens)
[1]
  Rate of change, 5-FU resistance (fold): (1.33) fold
  methylation on microRNA, 5-FU parental strain: 3
  methylation on microRNA, 5-FU resistant strain: 4
  Rate of change, FTD resistance (fold): 0.00 fold
  methylation on microRNA, FTD parental strain: 4
  methylation on microRNA, FTD resistant strain: 0

## miR-3131 (UCGAGGACUGGUGGAAGGGCCUU; chemistry not fully specified; listed as Homo sapiens)
[1]
  Rate of change, 5-FU resistance (fold): (0.33) fold
  methylation on microRNA, 5-FU parental strain: 9
  methylation on microRNA, 5-FU resistant strain: 3
  Rate of change, FTD resistance (fold): (10.00) fold
  methylation on microRNA, FTD parental strain: 1
  methylation on microRNA, FTD resistant strain: 10
